The record followed here is publication doi:10.1101/2023.03.31.535138v1 (biorxiv, 2023).

For this test, the target named is T1, NudC (Escherichia coli, UniProt P32664).
T1 sequence (P32664 1-257): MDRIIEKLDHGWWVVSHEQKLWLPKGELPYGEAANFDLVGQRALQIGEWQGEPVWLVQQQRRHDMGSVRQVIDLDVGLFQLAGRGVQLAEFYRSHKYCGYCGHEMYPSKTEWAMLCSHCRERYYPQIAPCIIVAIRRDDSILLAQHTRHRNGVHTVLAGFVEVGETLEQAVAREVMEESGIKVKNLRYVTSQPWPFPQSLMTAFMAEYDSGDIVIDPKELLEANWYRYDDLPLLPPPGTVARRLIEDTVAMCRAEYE
As to the kind of experiment: in vitro de-capping of NAD-RNA, gel assay, NudC activity plotted against ppGpp. In kind it is biochemical.

As to `Nc1nc2c(ncn2[C@@H]2O[C@H](COP(=O)(O)OP(=O)(O)O)[C@@H](OP(=O)(O)OP(=O)(O)O)[C@H]2O)c(=O)[nH]1` [ppGpp], the Ki (commonly the equilibrium dissociation constant of an inhibitor or competing ligand from its target) was roughly 70 µM.
